Source: US9309247B2, “2-substituted imidazo[4,5-D]phenanthroline derivatives and their use in the treatment of cancer” (Aptose Biosciences Inc., priority 2013, dated 2016)

How the values were obtained:
[1] = tested on: WEHI 231 (mouse, B-cell lymphoma); experiment: Cell growth inhibition assay, WEHI231; type: cell-based; conditions: five days of incubation, XTT; read-out: IC50 WEHI231 (ms)
Procedure: (§1) In this study, compounds 1-8 were screened in vitro against a panel of four mouse lymphoma cell lines and two human lymphoma cell line for cell growth inhibition activity. Following treatment, half maximal inhibitory concentrations (IC50) were determined with the objective of selecting the most efficacious compounds for evaluation of in vitro absorption, distribution, metabolism, and excretion (ADME) screening.
(§2) Similarly, human Burkitt's lymphoma Ramos cells (ATCC CRL-1596) were grown in suspension in Roswell Park Memorial Institute (RPMI) 1640 medium supplemented with 10% fetal bovine serum (FBS), 10 mM HEPES KOH pH 7.4, and 2 mM sodium pyruvate. Mouse P388D1 (ATCC CCL-46) and WR19L (ATCC TIB-52) cells were grown in suspension in Dulbecco's Modified Eagle Medium (DMEM) with 10% fetal bovine serum (FBS), 10 mM HEPES, and 2 mM sodium pyruvate. Mouse WEHI231 (ATCC CRL-1702) and EL4 (ATCC TIB-39) cells were grown in suspension in DMEM with 10% fetal bovine serum (FBS), 10 mM HEPES KOH pH 7.4, 2 mM sodium pyruvate, and 0.05 mM β-mercaptoethanol. All cells were maintained at 37° C. in an atmosphere of 5% CO2 in air. Logarithmically growing cells were routinely sub-cultured twice weekly. Briefly, cells were collected by centrifugation, resuspended in pre-warmed media, and diluted 1:10 into a 75 cm^2 flask.
(§3) Cells were subcultured and 4×10^3 cells (in 50 μL) were transferred to each well in a Falcon 96-well tissue culture plate. Exemplary compounds were dissolved in pure dimethyl sulphoxide (DMSO) at a concentration of 10 mM. From this 10 mM stock solution, 12 successive serial dilutions were made in DMSO (2.5 fold dilutions), ranging from 0.52 μM to 10 mM. Using these stock dilutions, 5 μL of each were added to 500 μL of media, and 50 μL of this was added to the cells. The final concentrations being tested ranged from 0.0026 μM to 50 μM. Each concentration was tested in triplicate, and DMSO and untreated cells were also included as controls. After five days of incubation with the compounds, cell viability was determined using the XTT cell proliferation kit (Roche, Cat. No. 11 465 015 001). Following the XTT protocol, 4.5-24 hours after addition of the reagent, the plates were read in a μQuant 96-well plate spectrophotometer (Biotek Instruments Inc.) and the results analyzed to determine the IC50.

[2] = tested on: human prostate cancer cell DU14; experiment: XTT cell proliferation assay, DU14; type: cell-based; conditions: 5 days incubation, read-out: Antiproliferative activity, Pros. DU14
Procedure: (§4) Exemplary compounds 1-8 were tested for anti-cancer activity in vitro using human renal cancer cells (ACHN and CAK-1), human pancreatic cells (BXPC3 and SU-86-86), human prostate cancer cell (DU14), human colon carcinoma cells (HT-29 and KM-12), leukemia cells (HL60), brain cancer/tumour cells (SK-A-AS, U87-MG), and human non-small cell lung cancer cells (H460). Compounds 1-8 are the specific embodiments of Formula (I) and Formula (IV) as described above in this application.
(§5) The cells were maintained as a monolayer in a growth medium; McCoy's 5A modified medium (Sigma, St. Louis, Mo.), supplemented with 2 mM L-glutamine (Gibco, Grand Island, N.Y.), 10% fetal bovine serum (FBS) (Multicell, WISENT Inc. St-Bruno, QC), antibiotic-antimycotic (Multicell), at 37° C. in a 5% CO2-humidified incubator. Cells were transferred onto 150 mm tissue culture plates and grown until sub-confluency (70-80%) prior to their use. The in vitro antiproliferative activity of compounds was evaluated by incubating the cells with varying concentrations of exemplary compounds as shown in Table 1 for 5 days. The efficacy of these compounds in this cell proliferation assay was measured based in the ability of live cells to reduce the tetrazolium salt XTT to orange colored compounds of formazan (XTT cell proliferation kit IT, Roche Applied Science, Montreal, QC).

[3] = tested on: human pancreatic cells SU-86-86; experiment: XTT cell proliferation assay, SU-86-86; type: cell-based; conditions: 5 days incubation, read-out: Antiproliferative activity, Pancreas SU-86-86
Procedure: as §4, §5

[4] = tested on: human non-small cell lung cancer cells H460; experiment: XTT cell proliferation assay, H460; type: cell-based; conditions: 5 days incubation, read-out: Antiproliferative activity, NSCLC H460
Procedure: as §4, §5

EL4 (mouse, lymphoma) = experiment: Cell growth inhibition assay, EL4; type: cell-based; conditions: five days of incubation, XTT; read-out: IC50 EL4 (ms)
Procedure: as §1, §2, §3

[5] = tested on: human colon carcinoma cells HT-29; experiment: XTT cell proliferation assay, HT-29; type: cell-based; conditions: 5 days incubation, read-out: Antiproliferative activity, Colon HT-29
Procedure: as §4, §5

[6] = tested on: human renal cancer cells ACHN; experiment: XTT cell proliferation assay, ACHN; type: cell-based; conditions: 5 days incubation, read-out: Antiproliferative activity, Kidney ACHN
Procedure: as §4, §5

[7] = tested on: non-small cell lung cancer cells H226; experiment: XTT cell proliferation assay, H226; type: cell-based, human; conditions: 5 days incubation, read-out: Antiproliferative activity, NSCLC H226
Procedure: [The procedure below names another cell line; the source lists this cell line under the same test.] as §4, §5

[8] = tested on: brain cancer/tumour cells U87-MG; experiment: XTT cell proliferation assay, U87-MG; type: cell-based, human; conditions: 5 days incubation, read-out: Antiproliferative activity, Brain U87-MG
Procedure: as §4, §5

[9] = tested on: non-small cell lung cancer cells HOP-62; experiment: XTT cell proliferation assay, HOP-62; type: cell-based, human; conditions: 5 days incubation, read-out: Antiproliferative activity, NSCLC HOP-62
Procedure: [The procedure below names another cell line; the source lists this cell line under the same test.] as §4, §5

[10] = tested on: human renal cancer cells CAKI-1; experiment: XTT cell proliferation assay, CAKI-1; type: cell-based; conditions: 5 days incubation, read-out: Antiproliferative activity, Kidney CAKI-1
Procedure: as §4, §5

[11] = tested on: human colon carcinoma cells KM12; experiment: XTT cell proliferation assay, KM12; type: cell-based; conditions: 5 days incubation, read-out: Antiproliferative activity, Colon KM12
Procedure: as §4, §5

[12] = tested on: Human Burkitt's lymphoma Raji cells; experiment: Cell growth inhibition assay, Raji; type: cell-based; conditions: five days of incubation, XTT; read-out: IC50 Raji (hs)
Procedure: as §1
Human Burkitt's lymphoma Raji cells (ATCC CCL-86) were grown in suspension in Roswell Park Memorial Institute (RPMI) 1640 medium supplemented with 10% fetal bovine serum (FBS), 10 mM HEPES KOH pH 7.4, and 2 mM sodium pyruvate at 37° C. in an atmosphere of 5% CO2 in air. Logarithmically growing cells were routinely sub-cultured twice weekly. Briefly, cells were collected by centrifugation, resuspended in pre-warmed media, and diluted 1:10 into a 75 cm^2 flask.
as §3

[13] = tested on: human pancreatic cells BXPC3; experiment: XTT cell proliferation assay, BXPC3; type: cell-based; conditions: 5 days incubation, read-out: Antiproliferative activity, Pancreas BXPC3
Procedure: as §4, §5

[14] = tested on: non-small cell lung cancer cells EKVX; experiment: XTT cell proliferation assay, EKVX; type: cell-based, human; conditions: 5 days incubation, read-out: Antiproliferative activity, NSCLC EKVX
Procedure: [The procedure below names another cell line; the source lists this cell line under the same test.] as §4, §5

WR19L (mouse, lymphoma) = experiment: Cell growth inhibition assay, WR19L; type: cell-based; conditions: five days of incubation, XTT; read-out: IC50 WR19L (ms)
Procedure: as §1, §2, §3

[15] = tested on: brain cancer/tumour cells SK-N-AS; experiment: XTT cell proliferation assay, SK-N-AS; type: cell-based, human; conditions: 5 days incubation, read-out: Antiproliferative activity, Brain SK-N-AS
Procedure: as §4, §5

[16] = tested on: panel of human and mouse lymphoma cell lines; experiment: Cell growth inhibition, whole lymphoma panel (mean IC50, mean rank); type: cell-based; conditions: mean over six lymphoma cell lines
Procedure: as §1, §3
In vitro potency was assessed using eight exemplary compounds against a panel of human and mouse lymphoma cell lines (Table 4). […] To compare the efficacy of the compounds in cell growth inhibition across the entire panel of cell lines screened, the eight compounds were ranked according to efficacy against each cell line with a numerical value of one indicating most efficacious (lowest IC50 value) and eight being the least efficacious (highest IC50 value).

leukemia cells HL60 = experiment: XTT cell proliferation assay, HL60; type: cell-based, human; conditions: 5 days incubation, read-out: Antiproliferative activity, Leuk. HL60
Procedure: as §4, §5

P388D1 (mouse, lymphoma) = experiment: Cell growth inhibition assay, P388D1; type: cell-based; conditions: five days of incubation, XTT; read-out: IC50 P388D1 (ms)
Procedure: as §1, §2, §3

[17] = tested on: human Burkitt's lymphoma Ramos cells; experiment: Cell growth inhibition assay, Ramos; type: cell-based; conditions: five days of incubation, XTT; read-out: IC50 Ramos (hs)
Procedure: as §1, §2, §3

[18] = tested on: non-small cell lung cancer cells HOP-92; experiment: XTT cell proliferation assay, HOP-92; type: cell-based, human; conditions: 5 days incubation, read-out: Antiproliferative activity, NSCLC HOP-92
Procedure: [The procedure below names another cell line; the source lists this cell line under the same test.] as §4, §5

Row | SMILES | IC50 [1] | IC50 [2] | IC50 [3] | IC50 [4] | IC50 (EL4 (mouse, lymphoma)) | IC50 [5] | IC50 [6] | IC50 [7] | IC50 [8] | IC50 [9] | IC50 [11] | IC50 [12] | IC50 [13] | IC50 [14] | IC50 (WR19L (mouse, lymphoma)) | IC50 [16] | IC50 (leukemia cells HL60) | IC50 (P388D1 (mouse, lymphoma)) | IC50 [17] | IC50 [18] | other results
1 | FC1(F)Oc2ccc(-c3nc4c5cccnc5c5ncccc5c4[nH]3)cc2O1 [Compound 7] | 0.0076 µM | 0.03 µM | 0.11 µM | 0.32 µM | 0.47 µM | 0.39 µM | 0.023 µM | 0.2 µM | 0.04 µM | 0.15 µM | 0.4 µM | 0.112 µM | 0.04 µM | 0.22 µM | 0.012 µM | 0.149 µM | 0.03 µM | 0.209 µM | 0.083 µM | 0.17 µM | IC50 [10]: 0.16 µM; IC50 [15]: 0.19 µM
2 | FC1(F)Oc2ccc(-c3nc4c5cccnc5c5ncccc5c4[nH]3)cc2O1 [Compound 6] | 0.0042 µM | 0.13 µM | 0.026 µM | 0.16 µM | 0.057 µM | 0.17 µM | 0.038 µM | 0.21 µM | 0.18 µM | 0.03 µM | 0.18 µM | 0.032 µM | 0.2 µM | 0.17 µM | < 0.0026 µM | 0.028 µM | 0.05 µM | 0.052 µM | 0.018 µM | 0.03 µM | IC50 [10]: 0.03 µM; IC50 [15]: 0.036 µM
3 | FC1(F)Oc2ccc(-c3nc4c5cccnc5c5ncccc5c4[nH]3)cc2O1 [Compound 5] | 0.0126 µM | 0.18 µM | 0.028 µM | 0.14 µM | 0.518 µM | 0.17 µM | 0.13 µM | 0.19 µM | 0.18 µM | 0.21 µM | 0.28 µM | 0.109 µM | 0.2 µM | 0.15 µM | 0.0093 µM | 0.19 µM | 0.11 µM | 0.414 µM | 0.075 µM | 0.17 µM | IC50 [15]: 0.09 µM
4 | FC1(F)Oc2ccc(-c3nc4c5cccnc5c5ncccc5c4[nH]3)cc2O1 [Compound 2] | 0.0051 µM | 0.22 µM |  |  | 0.384 µM | 0.3 µM | 0.17 µM | 0.43 µM | 0.18 µM |  | 0.22 µM | 0.166 µM | 0.18 µM |  | 0.031 µM | 0.189 µM | 0.38 µM | 0.4 µM | 0.15 µM | 0.17 µM | 
